Results: US11400059B2, “Treatment of pain and/or pain related symptoms associated with dysmenorrhea” (ALYRA BIOTECH PTY LTD, priority 2017, dated 2022)

Legend:
hNOD1 = target: T1, hNOD1 (Homo sapiens, UniProt Q9Y239); assay: Human NLR antagonist screening, NF-κB SEAP reporter in HEK293 cells; assay type: cell-based; conditions: antagonist mode, Ami 1 μM, +C12-iE-DAP 100 ng/mL, No Sample 10, Control− 1
T1 construct: expressed in transfected cells; host or cells: HEK293
T1 sequence (Q9Y239 1-953): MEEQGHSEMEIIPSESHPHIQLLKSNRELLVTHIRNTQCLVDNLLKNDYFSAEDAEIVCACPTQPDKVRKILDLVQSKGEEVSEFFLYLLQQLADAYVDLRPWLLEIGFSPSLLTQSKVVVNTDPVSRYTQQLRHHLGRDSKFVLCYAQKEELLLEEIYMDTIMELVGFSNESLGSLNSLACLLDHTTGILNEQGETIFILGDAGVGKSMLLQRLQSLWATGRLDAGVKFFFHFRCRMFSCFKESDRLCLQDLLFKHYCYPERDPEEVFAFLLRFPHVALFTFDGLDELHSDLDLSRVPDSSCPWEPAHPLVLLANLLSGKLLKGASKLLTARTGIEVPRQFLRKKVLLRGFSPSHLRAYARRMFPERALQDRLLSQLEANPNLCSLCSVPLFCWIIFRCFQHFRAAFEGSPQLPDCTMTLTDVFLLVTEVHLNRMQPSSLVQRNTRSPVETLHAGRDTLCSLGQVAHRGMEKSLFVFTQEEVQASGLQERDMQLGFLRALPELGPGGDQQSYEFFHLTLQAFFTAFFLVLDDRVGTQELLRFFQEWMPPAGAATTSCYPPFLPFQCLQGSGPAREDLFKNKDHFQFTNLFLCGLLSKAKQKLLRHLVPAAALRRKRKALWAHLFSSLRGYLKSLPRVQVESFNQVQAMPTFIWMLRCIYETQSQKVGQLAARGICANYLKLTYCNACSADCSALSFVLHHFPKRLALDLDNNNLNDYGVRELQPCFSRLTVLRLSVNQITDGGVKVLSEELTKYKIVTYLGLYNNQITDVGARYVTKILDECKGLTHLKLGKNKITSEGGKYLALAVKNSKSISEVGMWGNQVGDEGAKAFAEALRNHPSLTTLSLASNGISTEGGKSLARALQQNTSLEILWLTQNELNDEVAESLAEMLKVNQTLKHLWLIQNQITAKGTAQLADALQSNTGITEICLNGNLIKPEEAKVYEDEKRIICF
Description: (§1) Toll-Like Receptor (TLR), NOD-Like Receptor (NLR) and C-Type Lectin Receptor (CLR) stimulation were tested by assessing NF-κB activation in HEK293 cells expressing a given TLR, NLR or CLR. The activity of the test articles was tested at one concentration and compared to control ligands. These steps were performed in triplicate. hNOD1: C12-iE-DAP at 1 μg/mL Antagonist: 100 ng/mL. In a 96-well plate (200 μL total volume) containing the appropriate cells (50,000-75,000 cells/well), 20 μL of the test article or the positive control ligand was added to the wells. For the antagonist assay, the test article was incubated with the cells, at 37° C. with 5% CO2, for 30 minutes prior to the addition of the positive control ligand to the wells. The media added to the wells was designed for the detection of NF-κB induced SEAP expression. After a 16-24 hr incubation the optical density (OD) was read at 650 nm on a Molecular Devices SpectraMax 340PC absorbance detector. Fold induction (ratio of average induced value to average non-induced value) was determined for each TLR, NOD1, NOD2, Dectin-1a, Dectin-1b.

[1] = tested on: HEK293/Null1 and HEK293/Null2; assay: Antagonist screening on TLR−/NLR− control cell lines stimulated with TNFa; assay type: cell-based; conditions: stimulated with TNFa at 10 ng/mL
Description: as §1, with “triplicate.” for “triplicate. hNOD1: C12-iE-DAP at 1 μg/mL Antagonist: 100 ng/mL.”, “detector.” for “detector. Fold induction (ratio of average induced value to average non-induced value) was determined for each TLR, NOD1, NOD2, Dectin-1a, Dectin-1b.”

SMILES | Fold Induction (hNOD1) | Fold Induction (hNOD1; listed as Ami) | effect on TLR−/NLR− control cell lines [1]
CN(C)CCC=C1c2ccccc2CCc2ccccc21 [Amitriptyline] | slight inhibitory effect | 9 | slight inhibitory effect
CNCCC=C1c2ccccc2CCc2ccccc21 [Nortriptyline] | – | – | slight inhibitory effect
